Reference: US4575508A, “2-Substituted 1-(3'-aminoalkyl)-1,2,3,4-tetrahydro-β-carbolines, and their use as antiarrhythmic agents” (BASF Aktiengesellschaft, priority 1982, dated 1986)
Where two headings read alike, the source gives them in different places.

Key:
Format in all cases: in vivo, male Sprague-Dawley rats
[1] = Toxicity: dose at which first cardiotoxic or neurotoxic symptoms occur, rat, oral administration; conditions: in vivo
Method: (§1) To investigate the antiarrhythmic activity, the substances were administered orally to male Sprague-Dawley rats each weighing 200-250 g. 45 minutes later, the animals were anesthetized with sodium thiobutabarbital (100 mg/kg, administered intraperitoneally). Aconitine was used as the arrhythmogenic substance, and was infused intravenously 60 minutes after administration of the substance (dosage rate: 0.005 mg per kg per min.). […] The onset of these arrhythmias could be delayed by means of antiarrhythmics, the delay achieved being dose-dependent.
(§2) For further characterization of the substances, the dose at which the first cardiotoxic symptoms (changes in the initial ECG) or neurotoxic symptoms (coordination disturbances, convulsions, etc.) occurred was determined from the decimal-geometric dosage progression (factor .cuberoot.10) used in the experiments.

[2] = tested on: rat; experiment: as above
Method: as §1, §2

[3] = tested on: aconitine-induced arrhythmia; experiment: Aconitine-induced arrhythmia in rats, oral administration (antiarrhythmic activity); conditions: for ED50: Rattus norvegicus, po, 1 h, read-out: Aconitine-induced arrhythmia ED 50% (dose which prolongs the aconitine infusion duration by 50%); for times more effective than quinidine on aconitine-induced arrhythmia / R.A. (relative activity, based on quinidine = 1.00): rat, oral; for R.A. (relative activity, based on quinidine = 1.00): aconitine-induced arrhythmia; for antiarrhythmic action (in words): general statement
Method: as §1
Linear relationships exist between the logarithms of the doses (mg/kg) of the test substances and the relative prolongation of the aconitine infusion duration (Δ%), from which relationships the dose which prolongs the infusion duration by 50% can be determined, as the ED 50%.
The known antiarrhythmic quinidine was used as a comparative substance.

CC(=O)N1CCc2c([nH]c3ccccc23)C1CCCN(C)C (stereo not drawn) [Example 4, 1-(3'-Dimethylaminopropyl)-2-acetyl-1,2,3,4-tetrahydro-β-carboline]
selectivity ratio ([1]; po): 16 | Toxicity Dose (dose after the application of which the first toxic symptoms are observed) ([2]; in vivo, po): 215 mg/kg | ED50 [3]: 13.5 mg/kg | times more effective than quinidine on aconitine-induced arrhythmia [3]: 3 times | R.A. (relative activity, based on quinidine = 1.00) [3]: 3.22

CC(=O)N1CCc2c([nH]c3ccccc23)C1CCCN1CCN(C)CC1 (stereo not drawn) [Example 21, 1-[3'-(4-Methylpiperazin-1-yl)-propyl]-2-acetyl-1,2,3,4-tetrahydro-β-carboline]
selectivity ratio ([1]; po): 15 | Toxicity Dose (dose after the application of which the first toxic symptoms are observed) ([2]; in vivo, po): 215 mg/kg | ED50 [3]: 14.6 mg/kg | times more effective than quinidine on aconitine-induced arrhythmia [3]: 3 times | R.A. (relative activity, based on quinidine = 1.00) [3]: 2.98

CCCCNCCCC1c2[nH]c3ccccc3c2CCN1C(C)=O (stereo not drawn) [Example 28, 1-(3'-n-Butylaminopropyl)-2-acetyl-1,2,3,4-tetrahydro-β-carboline]
selectivity ratio ([1]; po): 17 | Toxicity Dose (dose after the application of which the first toxic symptoms are observed) ([2]; in vivo, po): 215 mg/kg | ED50 [3]: 12.4 mg/kg | R.A. (relative activity, based on quinidine = 1.00) [3]: 3.51

CCCCN(CCCC)CCCC1c2[nH]c3ccccc3c2CCN1C(C)=O (stereo not drawn) [Example 31, 1-[3'-(Di-n-butyl)-aminopropyl]-2-acetyl-1,2,3,4-tetrahydro-β-carboline]
selectivity ratio ([1]; po): 13 | Toxicity Dose (dose after the application of which the first toxic symptoms are observed) ([2]; in vivo, po): 21.5 mg/kg | ED50 [3]: 1.71 mg/kg | R.A. (relative activity, based on quinidine = 1.00) [3]: 25.44

CCC(C)N(CCCC1c2[nH]c3ccccc3c2CCN1C(C)=O)C(C)CC (stereo not drawn) [Example 33, 1-[3'-(Di-2-butyl)-aminopropyl]-2-acetyl-1,2,3,4-tetrahydro-β-carboline]
selectivity ratio ([1]; po): 14 | Toxicity Dose (dose after the application of which the first toxic symptoms are observed) ([2]; in vivo, po): 21.5 mg/kg | ED50 [3]: 1.57 mg/kg | R.A. (relative activity, based on quinidine = 1.00) [3]: 27.71

CCCN(CCC)CCCC1c2c(c3ccccc3n2C)CCN1C(C)=O (stereo not drawn) [Example 42, 1-(3'-Dipropylaminopropyl)-2-acetyl-9-methyl-1,2,3,4-tetrahydro-β-carboline]
selectivity ratio ([1]; po): 12 | Toxicity Dose (dose after the application of which the first toxic symptoms are observed) ([2]; in vivo, po): 10 mg/kg | ED50 [3]: 0.842 mg/kg | antiarrhythmic action (in words) [3]: particularly active | R.A. (relative activity, based on quinidine = 1.00) [3]: 51.66

CC(=O)N1CCc2c(n(C)c3ccccc23)C1CCCN(CC(C)C)CC(C)C (stereo not drawn) [Example 43, 1-[3'-(Di-2-methylpropyl)-aminopropyl]-2-acetyl-9-methyl-1,2,3,4-tetrahydro-β-carboline]
selectivity ratio ([1]; po): 13 | Toxicity Dose (dose after the application of which the first toxic symptoms are observed) ([2]; in vivo, po): 10 mg/kg | ED50 [3]: 0.803 mg/kg | antiarrhythmic action (in words) [3]: particularly active | R.A. (relative activity, based on quinidine = 1.00) [3]: 54.17

CCn1c2c(c3ccccc31)CCN(C(C)=O)C2CCCN1CCN(C)CC1 (stereo not drawn) [Example 44, 1-[3'-(4-Methylpiperazin-1-yl)-propyl]-2-acetyl-9-ethyl-1,2,3,4-tetrahydro-β-carboline]
selectivity ratio ([1]; po): 23 | Toxicity Dose (dose after the application of which the first toxic symptoms are observed) ([2]; in vivo, po): 215 mg/kg | ED50 [3]: 9.21 mg/kg | R.A. (relative activity, based on quinidine = 1.00) [3]: 4.72

CCCN(CCCC1c2c(c3ccccc3n2C)CCN1C(C)=O)C(C)C (stereo not drawn) [Example 46, 1-[3'-(Isopropylpropyl)-aminopropyl]-2-acetyl-9-methyl-1,2,3,4-tetrahydro-β-carboline]
selectivity ratio ([1]; oral, measure of the therapeutic index, read-out: Toxicity Q (quotient of the toxic dose and the antiarrhythmically effective dose, ED 50%)): 14 | Toxicity Dose (dose after the application of which the first toxic symptoms are observed) ([2]; oral, cardiotoxic or neurotoxic symptoms): 4.64 mg/kg | ED50 [3]: 0.732 mg/kg | times more effective than quinidine on aconitine-induced arrhythmia [3]: 59 times | R.A. (relative activity, based on quinidine = 1.00) [3]: 59.43

C=C[C@H]1C[N@@]2CC[C@H]1C[C@@H]2[C@@H](O)c1ccnc2ccc(OC)cc12 [quinidine, reference compound]
ED50 [3]: 43.5 mg/kg
